In the supplement of paper PMC10307832:

How the values were obtained:
Experiment in all cases: relative viability (nuclei count vs DMSO), 5 days (fraction); higher = more cells survive
NCI-H522 = test system: NCI-H522
Summary of the method: (§1)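 Lung cancer cell lines were seeded in 1536-well plates and dosed by pin tool the next day, with either a single drug or a fixed anchor-drug dose combined with five library-drug doses (not always all listed) spaced in √10 steps. Five days later, one step fixed the cells and stained their nuclei (final 0.05% Triton X-100, 1% formaldehyde, 1 ug/ml Hoechst), and nuclei were counted on 4× images. Relative viability is the nuclei count in treated wells divided by the count in vehicle wells, and each value is the median of duplicate plates.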

EKVX = test system: EKVX
Summary of the method: as §1

NCI-H2342 = test system: NCI-H2342
Summary of the method: as §1

H3255 = test system: H3255
Summary of the method: as §1

NCI-H2347 = test system: NCI-H2347
Summary of the method: as §1

NCI-H1944 = test system: NCI-H1944
Summary of the method: as §1

LC-2-ad = test system: LC-2-ad
Summary of the method: as §1

COR-L 105 = test system: COR-L 105
Summary of the method: as §1

PC-3 [JPC-3] = test system: PC-3 [JPC-3]
Summary of the method: as §1

LXF-289 = test system: LXF-289
Summary of the method: as §1

NCI-H1395 = test system: NCI-H1395
Summary of the method: as §1

NCI-H1915 = test system: NCI-H1915
Summary of the method: as §1

SK-MES-1 = test system: SK-MES-1
Summary of the method: as §1

NCI-H2228 = test system: NCI-H2228
Summary of the method: as §1

LK-2 = test system: LK-2
Summary of the method: as §1

NCI-H2085 = test system: NCI-H2085
Summary of the method: as §1

EMC-BAC-2 = test system: EMC-BAC-2
Summary of the method: as §1

NCI-H1651 = test system: NCI-H1651
Summary of the method: as §1

CAL-12T = test system: CAL-12T
Summary of the method: as §1

NCI-H1793 = test system: NCI-H1793
Summary of the method: as §1

NCI-H2087 = test system: NCI-H2087
Summary of the method: as §1

SK-LU-1 = test system: SK-LU-1
Summary of the method: as §1

NCI-H1437 = test system: NCI-H1437
Summary of the method: as §1

NCI-H661 = test system: NCI-H661
Summary of the method: as §1

NCI-H1755 = test system: NCI-H1755
Summary of the method: as §1

SMILES: CCCCCCCCCCCC1=C(O)C(=O)C=C(O)C1=O [Embelin] + Nc1nc2[nH]cc(CCc3ccc(C(=O)N[C@@H](CCC(=O)O)C(=O)O)cc3)c2c(=O)[nH]1 [Pemetrexed] (partner 0.2 µM)
- relative viability (NCI-H522; first compound 0.08 µM): 0.901
- relative viability (NCI-H522; first compound 0.8 µM): 1.06
- relative viability (NCI-H522; first compound 2.53 µM): 0.957
- relative viability (NCI-H522; first compound 8 µM): 0.837
- relative viability (EKVX; first compound 0.08 µM): 0.406
- relative viability (EKVX; first compound 0.8 µM): 0.465
- relative viability (EKVX; first compound 2.53 µM): 0.368
- relative viability (EKVX; first compound 8 µM): 0.407
- relative viability (NCI-H2342; first compound 0.08 µM): 0.738
- relative viability (NCI-H2342; first compound 0.8 µM): 0.806
- relative viability (NCI-H2342; first compound 2.53 µM): 0.859
- relative viability (NCI-H2342; first compound 8 µM): 0.814
- relative viability (H3255; first compound 0.08 µM): 0.566
- relative viability (H3255; first compound 0.8 µM): 0.616
- relative viability (H3255; first compound 2.53 µM): 0.597
- relative viability (H3255; first compound 8 µM): 0.585
- relative viability (NCI-H2347; first compound 0.08 µM): 0.413
- relative viability (NCI-H2347; first compound 0.8 µM): 0.482
- relative viability (NCI-H2347; first compound 2.53 µM): 0.448
- relative viability (NCI-H2347; first compound 8 µM): 0.434
- relative viability (NCI-H1944; first compound 0.08 µM): 0.545
- relative viability (NCI-H1944; first compound 0.8 µM): 0.754
- relative viability (NCI-H1944; first compound 2.53 µM): 0.578
- relative viability (NCI-H1944; first compound 8 µM): 0.643
- relative viability (LC-2-ad; first compound 0.08 µM): 0.274
- relative viability (LC-2-ad; first compound 0.8 µM): 0.282
- relative viability (LC-2-ad; first compound 2.53 µM): 0.257
- relative viability (LC-2-ad; first compound 8 µM): 0.288
- relative viability (COR-L 105; first compound 0.08 µM): 1.15
- relative viability (COR-L 105; first compound 0.8 µM): 1.21
- relative viability (COR-L 105; first compound 2.53 µM): 1
- relative viability (COR-L 105; first compound 8 µM): 1.08
- relative viability (PC-3 [JPC-3]; first compound 0.08 µM): 1.04
- relative viability (PC-3 [JPC-3]; first compound 0.8 µM): 1.17
- relative viability (PC-3 [JPC-3]; first compound 2.53 µM): 1.07
- relative viability (PC-3 [JPC-3]; first compound 8 µM): 0.634
- relative viability (LXF-289; first compound 0.08 µM): 0.863
- relative viability (LXF-289; first compound 0.8 µM): 0.915
- relative viability (LXF-289; first compound 2.53 µM): 0.866
- relative viability (LXF-289; first compound 8 µM): 1.08
- relative viability (NCI-H1395; first compound 0.08 µM): 0.828
- relative viability (NCI-H1395; first compound 0.8 µM): 1.03
- relative viability (NCI-H1395; first compound 2.53 µM): 0.856
- relative viability (NCI-H1395; first compound 8 µM): 0.585
- relative viability (NCI-H1915; first compound 0.08 µM): 0.518
- relative viability (NCI-H1915; first compound 0.8 µM): 0.488
- relative viability (NCI-H1915; first compound 2.53 µM): 0.558
- relative viability (NCI-H1915; first compound 8 µM): 0.55
- relative viability (SK-MES-1; first compound 0.08 µM): 1.01
- relative viability (SK-MES-1; first compound 0.8 µM): 1.05
- relative viability (SK-MES-1; first compound 2.53 µM): 0.937
- relative viability (SK-MES-1; first compound 8 µM): 0.824
- relative viability (NCI-H2228; first compound 0.08 µM): 0.329
- relative viability (NCI-H2228; first compound 0.8 µM): 0.347
- relative viability (NCI-H2228; first compound 2.53 µM): 0.345
- relative viability (NCI-H2228; first compound 8 µM): 0.39
- relative viability (LK-2; first compound 0.08 µM): 0.335
- relative viability (LK-2; first compound 0.8 µM): 0.227
- relative viability (LK-2; first compound 2.53 µM): 0.385
- relative viability (LK-2; first compound 8 µM): 0.289
- relative viability (NCI-H2085; first compound 0.08 µM): 0.854
- relative viability (NCI-H2085; first compound 0.8 µM): 1.01
- relative viability (NCI-H2085; first compound 2.53 µM): 0.87
- relative viability (NCI-H2085; first compound 8 µM): 0.871
- relative viability (EMC-BAC-2; first compound 0.08 µM): 0.472
- relative viability (EMC-BAC-2; first compound 0.8 µM): 0.53
- relative viability (EMC-BAC-2; first compound 2.53 µM): 0.399
- relative viability (EMC-BAC-2; first compound 8 µM): 0.49
- relative viability (NCI-H1651; first compound 0.08 µM): 0.58
- relative viability (NCI-H1651; first compound 0.8 µM): 0.613
- relative viability (NCI-H1651; first compound 2.53 µM): 0.656
- relative viability (NCI-H1651; first compound 8 µM): 0.642
- relative viability (CAL-12T; first compound 0.08 µM): 1.11
- relative viability (CAL-12T; first compound 0.8 µM): 1.4
- relative viability (CAL-12T; first compound 2.53 µM): 1.1
- relative viability (CAL-12T; first compound 8 µM): 1.06
- relative viability (NCI-H1793; first compound 0.08 µM): 0.82
- relative viability (NCI-H1793; first compound 0.8 µM): 1.06
- relative viability (NCI-H1793; first compound 2.53 µM): 1.18
- relative viability (NCI-H1793; first compound 8 µM): 0.37
- relative viability (NCI-H2087; first compound 0.08 µM): 0.745
- relative viability (NCI-H2087; first compound 0.8 µM): 0.517
- relative viability (NCI-H2087; first compound 2.53 µM): 0.748
- relative viability (NCI-H2087; first compound 8 µM): 0.646
- relative viability (SK-LU-1; first compound 0.08 µM): 0.975
- relative viability (SK-LU-1; first compound 0.8 µM): 1.13
- relative viability (SK-LU-1; first compound 2.53 µM): 0.962
- relative viability (SK-LU-1; first compound 8 µM): 0.988
- relative viability (NCI-H1437; first compound 0.08 µM): 0.339
- relative viability (NCI-H1437; first compound 0.8 µM): 0.306
- relative viability (NCI-H1437; first compound 2.53 µM): 0.317
- relative viability (NCI-H1437; first compound 8 µM): 0.215
- relative viability (NCI-H661; first compound 0.08 µM): 0.953
- relative viability (NCI-H661; first compound 0.8 µM): 0.936
- relative viability (NCI-H661; first compound 2.53 µM): 0.886
- relative viability (NCI-H661; first compound 8 µM): 0.896
- relative viability (NCI-H1755; first compound 0.08 µM): 0.448
- relative viability (NCI-H1755; first compound 0.8 µM): 0.468
- relative viability (NCI-H1755; first compound 2.53 µM): 0.433
- relative viability (NCI-H1755; first compound 8 µM): 0.46
